According to patent US7838023B2, “Furoxan compounds, compositions and methods of use” (NitroMed, Inc., priority 2005, dated 2010):
Counter-ions that a name gives are not always drawn. Like-named read-outs stand apart in the source and are kept apart here.

Legend:
[1] = tested on: Human coronary artery smooth muscle cells (SMC); assay: Vascular smooth muscle cell (SMC) antiproliferation assay; format: cell-based; settings: inhibition of proliferation, viable cell count ~68 hours after addition
Protocol: (§1) Human coronary artery smooth muscle cells (SMC) and endothelial cells (EC) were supplied by Cambrex Bio Science Walkersville, Inc. (Walkersville, MD). The smooth muscle cells were maintained in a basal medium, EBM (Cambrex Bio Science Walkersville, Inc), without phenol red and supplemented with 5% (v/v) fetal bovine serum (FBS), human recombinant epidermal growth factor (EGF), human recombinant fibroblast growth factor (FGF), bovine insulin, 50 μg/mL gentamicin sulfate, and 50 ng/mL amphotericin B (all obtained from Cambrex Bio Science Walkersville, Inc. as SMGM2 SingleQuots). The endothelial cells were grown in a modified EGM2-MV medium (Cambrex Bio Science Walkersville, Inc.), which had the same, phenol red-free, basal medium, EBM, as used in the smooth muscle cell medium, but were supplemented with 5% (v/v) fetal bovine serum (FBS), human recombinant epidermal growth factor (EGF), human recombinant fibroblast growth factor (FGF), vascular endothelial growth factor (VEGF), recombinant insulin-like growth factor-1 (IGF-1), ascorbic acid, 50 μg/mL gentamicin sulfate, and 50 ng/mL amphotericin B (all supplied by Cambrex Bio Science Walkersville, Inc. as EGM2-MV SingleQuots). All cells were incubated under humidified 95% air-5% CO2 at 37° C.
(§2) For the SMC/EC Antiproliferation Assay, the cells were seeded at 4×10^4 viable cells in 2 mL of the appropriate medium per well of a Corning tissue culture 24 well plate (Corning, N.Y.). Stock solutions of the test compounds were prepared just prior to addition to the cells by dissolving in DMSO at a concentration 1000 times the highest concentration to be assayed. This stock solution was diluted, as required, with DMSO to the required concentration. On the same day the cells were seeded, but after they had attached and spread out (about 3 hr), each test compound in varying concentrations (2 μL of the diluted stock solutions) was added to four replicate wells (n=4) for each concentration. Control cultures received 2 μL of DMSO per well (n=4). On the following morning, the cultures were examined microscopically and their condition, including evidence of cytotoxicity, recorded. ˜68 hours after the addition of the test compound, the cultures were examined microscopically and the viable cells counted with a hemacytometer following trypsinization with 0.25% trypsin-1 mM EDTA. Trypan Blue dye exclusion was used to discriminate between viable and dead cells. The results are presented as % of the control viable cell count (mean±SEM) and are used to determine the IC50 for the inhibition of proliferation of vascular smooth muscle and endothelial cells.

[2] = tested on: Human coronary artery endothelial cells (EC); assay: Endothelial cell (EC) antiproliferation assay; format: cell-based; settings: inhibition of proliferation, viable cell count ~68 hours after addition
Protocol: as §1, §2

[3] = Homo sapiens, SMC strain 3033, read-out: SMC Strain 3033, IC50
[4] = Homo sapiens, Endothelial cell, EC strain 3033, read-out: EC Strain 3033, IC50

Compound O=S(=O)(c1ccccc1)c1c(OCCN(CCOc2no[n+]([O-])c2S(=O)(=O)c2ccccc2)CCOc2no[n+]([O-])c2S(=O)(=O)c2ccccc2)no[n+]1[O-] [Example 1d, Ethanamine, 2-[[5-oxido-4-(phenylsulfonyl)-1,2,5-oxadiazol-3-yl]oxy]-N,N-bis[2-[[5-oxido-4-(phenylsulfonyl)-1,2,5-oxadiazol-3-yl]oxy]ethyl]-, 2-hydroxy-1,2,3-propanetricarboxylate] has an IC50 [1, 3] of 6 nM, an IC50 ([1]; Homo sapiens, SMC strain 5286, read-out: SMC Strain 5286, IC50) of 17 nM and an IC50 ([1]; Homo sapiens, SMC strain 9557-1, read-out: SMC Strain 9557-1, IC50) of 8 nM. It also gave an IC50 [2, 4] of 447 nM and an IC50 ([2]; Homo sapiens, Endothelial cell, EC strain 5675-1, read-out: EC Strain 5675-1, IC50) of 460 nM.

O=S(=O)(c1ccccc1)c1c(OCCNCCOc2no[n+]([O-])c2S(=O)(=O)c2ccccc2)no[n+]1[O-] [Example 2b, Ethanamine, 2-[[5-oxido-4-(phenylsulfonyl)-1,2,5-oxadiazol-3-yl]oxy]-N-[2-[[5-oxido-4-(phenylsulfonyl)-1,2,5-oxadiazol-3-yl]oxy]ethyl]-, 2-hydroxy-1,2,3-propanetricarboxylate (1:1) (salt)] showed an IC50 [1, 3] of 71 nM and an IC50 [2, 4] of 690 nM.

Compound O=S(=O)(c1ccccc1)c1c(OCC(COc2no[n+]([O-])c2S(=O)(=O)c2ccccc2)Oc2no[n+]([O-])c2S(=O)(=O)c2ccccc2)no[n+]1[O-] [Example 4] has an IC50 ([1]; SMC strain 5286, read-out: SMC Strain 5286, IC50) of 13 nM, an IC50 ([1]; SMC strain 9557-1, read-out: SMC Strain 9557-1, IC50) of 9 nM and an IC50 ([2]; EC strain 3033, read-out: EC Strain 3033, IC50) of 346 nM.

O=S(=O)(c1ccccc1)c1c(OCCOc2no[n+]([O-])c2S(=O)(=O)c2ccccc2)no[n+]1[O-] [Example 5] showed a melting point of 187 to 189 °C.
